This is an account of results in PubChem BioAssay AID330 (DTP/NCI, 2004).

Several values for one entry are separate records, joined by “and”; a condition that tells them apart may be missing. Equal values may be shown once. Inconclusive results and toxic doses are left out.

The subject of the test is P388 leukemia ip, CD2F1 mice, survival T/C. The experiment in a line: NCI In Vivo Anticancer Drug Screen. Data for tumor model P388 Leukemia (intraperitoneal) in CD2F1 (CDF1) mice. The conditions noted are these: endpoint: median survival time, higher = longer survival. A digest of the protocol:
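Mice carrying the transplanted tumor received test compound or vehicle. Survival was recorded in each group, and the value is the treated-group measurement divided by that of the vehicle-treated control group.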

The mark [1] stands for this setting: dose: 60.0 mg/kg/injection, schedule: Q01DX005 (ip), vehicle: saline with Tween-80.
Setting [2] is: dose: 100.0 mg/kg/injection, schedule: Q01DX009 (ip), vehicle: saline.
[3] abbreviates: dose: 200.0 mg/kg/injection, schedule: Q01DX009 (ip), vehicle: saline.
[4] abbreviates: dose: 50.0 mg/kg/injection, schedule: Q01DX005 (ip), vehicle: saline with Tween-80.
Where [5] appears, read: dose: 100.0 mg/kg/injection, schedule: Q01DX005 (ip), vehicle: saline with Tween-80.
The mark [6] stands for this setting: dose: 200.0 mg/kg/injection, schedule: Q01DX005 (ip), vehicle: saline with Tween-80.

Consider `Cc1ccc(/C=C2/C(=O)N(c3ccccc3)N=C2c2ccccc2)cc1`, for which the T/C by setting is: (dose: 1.87 mg/kg/injection, schedule: Q01DX005 (ip), vehicle: saline with Tween-80) 110 % of control; (dose: 3.75 mg/kg/injection, schedule: Q01DX005 (ip), vehicle: saline with Tween-80) 113 % of control; (dose: 3.75 mg/kg/injection, schedule: Q01DX005 (ip), vehicle: saline) 95 % of control; (dose: 7.5 mg/kg/injection, schedule: Q01DX005 (ip), vehicle: saline with Tween-80) 113 % of control; (dose: 15.0 mg/kg/injection, schedule: Q01DX005 (ip), vehicle: saline with Tween-80) 110 % of control; (dose: 15.0 mg/kg/injection, schedule: Q01DX005 (ip), vehicle: saline) 100 % of control. In addition, the T/C reads like this: (dose: 30.0 mg/kg/injection, schedule: Q01DX005 (ip), vehicle: saline with Tween-80) 109 % of control; under setting [1], 108 % of control.
For `CCOC(=O)C1=C(C)NC(C)=C(C(=O)OCC)C1c1ccncc1`, the T/C by setting is: (dose: 25.0 mg/kg/injection, schedule: Q01DX009 (ip), vehicle: other) 103 % of control; (dose: 50.0 mg/kg/injection, schedule: Q01DX009 (ip), vehicle: other) 89 % of control; (dose: 100.0 mg/kg/injection, schedule: Q01DX009 (ip), vehicle: other) 96 % of control; (dose: 200.0 mg/kg/injection, schedule: Q01DX009 (ip), vehicle: other) 97 % of control; (dose: 400.0 mg/kg/injection, schedule: Q01DX009 (ip), vehicle: other) 95 % of control.
Turning to `O=S(=O)(O)O.[NH-]C1CCCC1[NH-].[Pt+2]` (stereo unspecified), the T/C is 177 % of control and 195 % of control (dose: 6.25 mg/kg/injection, schedule: Q04DX002 (ip), vehicle: saline); 180 % of control and 202 % of control (dose: 12.5 mg/kg/injection, schedule: Q04DX002 (ip), vehicle: saline); 191 % of control (dose: 12.5 mg/kg/injection, schedule: Q04DX002 (ip), vehicle: suspension in saline); 198 % of control and 194 % of control (dose: 25.0 mg/kg/injection, schedule: Q04DX002 (ip), vehicle: saline).
For `Nc1nc(Cl)nc2c1ncn2C1OC(CO)C(O)C1F` (stereo unspecified), the T/C (dose: 12.5 mg/kg/injection, schedule: Q01DX005 (ip), vehicle: saline) is 122 % of control and the T/C (dose: 200.0 mg/kg/injection, schedule: Q01DX005 (ip), vehicle: saline) was 159 % of control.
Turning to `CC(C)N1C(=O)NC2C1NC(=O)N2C(C)C` (stereo unspecified) (tested in a mixture with another compound), the T/C by setting is: under setting [1], 106 % of control; (dose: 120.0 mg/kg/injection, schedule: Q01DX005 (ip), vehicle: saline with Tween-80) 105 % of control; (dose: 240.0 mg/kg/injection, schedule: Q01DX005 (ip), vehicle: saline with Tween-80) 105 % of control.
In the case of `CCNC(=S)N/N=C/c1nccc(-c2ccccc2)c1C`, the T/C by setting is: (dose: 25.0 mg/kg/injection, schedule: Q01DX009 (ip), vehicle: saline) 117 % of control and 94 % of control; (dose: 50.0 mg/kg/injection, schedule: Q01DX009 (ip), vehicle: saline) 100 % of control and 103 % of control (2×); under setting [2], 99 % of control and 108 % of control; under setting [3], 100 % of control.
Consider `CSC(=S)NN=C(c1ccccc1)c1ccccc1`, for which the T/C (dose: 0.78 mg/kg/injection, schedule: Q01DX009 (ip), vehicle: saline) is 102 % of control; the T/C (dose: 1.56 mg/kg/injection, schedule: Q01DX009 (ip), vehicle: saline) is 102 % of control; the T/C (dose: 3.12 mg/kg/injection, schedule: Q01DX009 (ip), vehicle: saline) was 100 % of control; the T/C under setting [2] is 113 % of control; the T/C under setting [3] is 96 % of control.
`C/C(=N\N=C(/[Se])N1CCC1)c1ccccn1`: the T/C runs as follows: (dose: 12.5 mg/kg/injection, schedule: Q04DX003 (ip), vehicle: Klucel (hydroxypropylcellulose) (HPC)) 106 % of control; (dose: 25.0 mg/kg/injection, schedule: Q04DX003 (ip), vehicle: Klucel (hydroxypropylcellulose) (HPC)) 104 % of control.
As for `Cc1cccc(-c2cc(Cl)c3cc(S(=O)(=O)F)ccc3n2)c1`, the T/C was 100 % of control (dose: 100.0 mg/kg/injection, schedule: Q01DX009 (ip), vehicle: saline with Tween-80); 100 % of control (dose: 100.0 mg/kg/injection, schedule: Q04DX003 (ip), vehicle: saline with Tween-80); 108 % of control (dose: 200.0 mg/kg/injection, schedule: Q01DX009 (ip), vehicle: saline with Tween-80); 100 % of control (dose: 200.0 mg/kg/injection, schedule: Q04DX003 (ip), vehicle: saline with Tween-80); 100 % of control (dose: 400.0 mg/kg/injection, schedule: Q01DX009 (ip), vehicle: saline with Tween-80); 109 % of control (dose: 400.0 mg/kg/injection, schedule: Q04DX003 (ip), vehicle: saline with Tween-80).
For `O=P(C/C=C/CO)(c1ccccc1)c1ccccc1`, the T/C is, setting by setting: under setting [4], 98 % of control; under setting [5], 98 % of control; under setting [6], 103 % of control.
With `Cn1c(=O)c2nc(-c3ccc(Cl)cc3)c(-c3ccc(Cl)cc3)nc2n(C)c1=O`, the T/C (dose: 50.0 mg/kg/injection, schedule: Q01DX001 (ip), vehicle: saline with Tween-80) is 102 % of control; the T/C (dose: 100.0 mg/kg/injection, schedule: Q01DX001 (ip), vehicle: saline with Tween-80) was 102 % of control; the T/C (dose: 200.0 mg/kg/injection, schedule: Q01DX001 (ip), vehicle: saline with Tween-80) was 110 % of control.
For the molecule `N#CC(COC(=O)c1ccccc1)OC(=O)c1ccccc1` (stereo unspecified), the T/C is 91 % of control under setting [4], 95 % of control under setting [5] and 86 % of control under setting [6].
For the molecule `OC1C=C(c2ccccc2)C(O)(c2ccccc2)C1` (stereo unspecified), the T/C is 100 % of control (dose: 50.0 mg/kg/injection, schedule: Q01DX009 (ip), vehicle: Klucel (hydroxypropylcellulose) (HPC)); 100 % of control (dose: 100.0 mg/kg/injection, schedule: Q01DX009 (ip), vehicle: Klucel (hydroxypropylcellulose) (HPC)); 92 % of control (dose: 200.0 mg/kg/injection, schedule: Q01DX009 (ip), vehicle: Klucel (hydroxypropylcellulose) (HPC)).
Regarding `CC(=N/N=C(N)N)/C(C)=N/N=C(N)N`, the T/C was 104 % of control under setting [4] and 110 % of control under setting [5].
For `CC(=O)OCc1c([O-])on[n+]1-c1ccccc1`, the T/C is 100 % of control (dose: 50.0 mg/kg/injection, schedule: Q01DX005 (ip), vehicle: Klucel (hydroxypropylcellulose) (HPC)); 102 % of control (dose: 100.0 mg/kg/injection, schedule: Q01DX005 (ip), vehicle: Klucel (hydroxypropylcellulose) (HPC)); 102 % of control (dose: 200.0 mg/kg/injection, schedule: Q01DX005 (ip), vehicle: Klucel (hydroxypropylcellulose) (HPC)).
